{"source": "BindingDB's records for doi:10.1021/acschembio.5b00291", "about": "(Ujf-Embl-Cnrs, 2015)", "assay_in_all_cases": "Isothermal Titration Calorimetry (ITC)", "conditions_in_all_cases": "pH 8; 25 °C", "key": {"Leucine--tRNA ligase": {"target": "T1, Leucine--tRNA ligase (Candida albicans (strain WO-1), UniProt C4YL05)", "T1 sequence (C4YL05 whole entry)": "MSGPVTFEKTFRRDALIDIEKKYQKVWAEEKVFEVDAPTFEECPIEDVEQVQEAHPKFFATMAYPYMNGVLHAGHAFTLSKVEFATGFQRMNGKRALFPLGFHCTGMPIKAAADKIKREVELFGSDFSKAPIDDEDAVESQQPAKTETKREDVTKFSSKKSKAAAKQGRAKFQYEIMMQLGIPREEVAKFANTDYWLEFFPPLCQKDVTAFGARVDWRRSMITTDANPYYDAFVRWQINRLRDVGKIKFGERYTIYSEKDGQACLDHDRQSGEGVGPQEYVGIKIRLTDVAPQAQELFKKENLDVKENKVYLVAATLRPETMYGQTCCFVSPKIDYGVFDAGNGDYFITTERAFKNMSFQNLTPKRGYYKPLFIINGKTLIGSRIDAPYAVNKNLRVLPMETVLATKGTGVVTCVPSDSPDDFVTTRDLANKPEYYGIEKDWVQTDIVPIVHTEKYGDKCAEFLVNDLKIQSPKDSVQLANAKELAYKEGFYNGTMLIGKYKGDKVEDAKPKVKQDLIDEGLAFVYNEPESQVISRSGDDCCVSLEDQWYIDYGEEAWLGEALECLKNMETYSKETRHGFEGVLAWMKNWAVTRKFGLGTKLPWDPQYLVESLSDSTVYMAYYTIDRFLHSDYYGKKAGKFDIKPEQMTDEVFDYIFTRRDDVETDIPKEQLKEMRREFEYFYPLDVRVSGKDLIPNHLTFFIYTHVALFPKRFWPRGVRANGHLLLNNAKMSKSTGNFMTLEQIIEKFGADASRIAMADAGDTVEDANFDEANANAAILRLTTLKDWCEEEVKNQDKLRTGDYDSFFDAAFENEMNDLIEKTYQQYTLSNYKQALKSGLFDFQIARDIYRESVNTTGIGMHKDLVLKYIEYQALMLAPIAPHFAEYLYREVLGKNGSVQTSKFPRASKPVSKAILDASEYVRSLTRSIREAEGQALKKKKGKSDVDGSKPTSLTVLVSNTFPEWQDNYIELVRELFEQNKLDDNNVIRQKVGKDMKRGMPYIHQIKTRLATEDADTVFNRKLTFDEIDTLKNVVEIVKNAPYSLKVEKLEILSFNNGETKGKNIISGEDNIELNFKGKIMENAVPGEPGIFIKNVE", "procedure": "(§1) ITC was performed using LeuRS CP1 domain wild-type, K510E mutant, or K510A mutant against AN2690-AMP at 25 °C by an ITC200 system (MicroCal, GE Healthcare). Wildtype protein and mutants were dialyzed against the titration buffer (50 mM HEPES-KOH, 30 mM KCl and 30 mM MgCl2, pH 8.0). Compound AN2690 and AMP were also prepared in the same buffer. A 60 μM protein solution was in the presence of 10 mM AMP in the calorimetric cell and titrated using 26 stepwise injections of 1.5 μL each with the compound AN2690 plus AMP. AN2690 solutions were placed in the syringe at 0.7 to 3 mM (depending on the expected affinity) along with 10 mM AMP. The heat generated after each ligand injection was measured base on the integral of the calorimetric signal. The resultant binding isotherms were analyzed by a nonlinear least-squares fit of the experimental data to a single site model using Microcal Origin 7.0 software. Experiments were duplicated and variability estimated to be 5% in the binding"}, "[1]": {"target": "Leucine--tRNA ligase [A132I,E138V,K510A,I952T] (Candida albicans (strain WO-1), UniProt A0A1D8PS12, A132I/E138V/I952T/K510A)", "sequence (A0A1D8PS12 whole entry A132I/E138V/K510A/I952T)": "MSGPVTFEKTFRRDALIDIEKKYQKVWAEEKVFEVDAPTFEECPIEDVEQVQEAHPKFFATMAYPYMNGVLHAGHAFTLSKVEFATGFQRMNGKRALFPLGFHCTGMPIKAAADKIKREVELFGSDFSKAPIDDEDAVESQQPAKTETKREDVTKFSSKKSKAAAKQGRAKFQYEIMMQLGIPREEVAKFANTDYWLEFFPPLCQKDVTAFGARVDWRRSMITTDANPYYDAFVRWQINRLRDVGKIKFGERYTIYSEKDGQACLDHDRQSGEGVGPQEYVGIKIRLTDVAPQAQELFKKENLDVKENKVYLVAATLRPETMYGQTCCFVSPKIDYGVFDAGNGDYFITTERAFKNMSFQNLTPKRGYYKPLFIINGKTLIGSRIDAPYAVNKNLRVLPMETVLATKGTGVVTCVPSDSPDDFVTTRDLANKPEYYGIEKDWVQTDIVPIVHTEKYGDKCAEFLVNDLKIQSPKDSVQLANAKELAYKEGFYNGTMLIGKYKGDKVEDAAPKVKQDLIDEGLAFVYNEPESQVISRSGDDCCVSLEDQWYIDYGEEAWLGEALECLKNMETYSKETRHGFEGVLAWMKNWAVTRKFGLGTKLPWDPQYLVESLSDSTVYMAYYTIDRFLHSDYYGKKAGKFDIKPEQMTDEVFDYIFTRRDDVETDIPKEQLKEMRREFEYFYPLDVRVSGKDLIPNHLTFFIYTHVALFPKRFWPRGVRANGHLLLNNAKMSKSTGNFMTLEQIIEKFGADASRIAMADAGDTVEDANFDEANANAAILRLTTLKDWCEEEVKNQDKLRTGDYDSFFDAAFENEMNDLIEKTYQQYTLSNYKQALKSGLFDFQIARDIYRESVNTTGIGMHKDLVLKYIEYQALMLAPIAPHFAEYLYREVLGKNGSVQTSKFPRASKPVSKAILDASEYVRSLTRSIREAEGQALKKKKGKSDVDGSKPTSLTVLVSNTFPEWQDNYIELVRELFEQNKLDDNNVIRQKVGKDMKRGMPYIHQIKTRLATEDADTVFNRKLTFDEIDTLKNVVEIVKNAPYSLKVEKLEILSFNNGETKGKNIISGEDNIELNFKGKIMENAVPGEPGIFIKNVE", "procedure": "as §1"}, "[2]": {"target": "Leucine--tRNA ligase [A132I,E138V,K510E,I952T] (Candida albicans (strain WO-1), UniProt A0A1D8PS12, A132I/E138V/I952T/K510E)", "sequence (A0A1D8PS12 whole entry A132I/E138V/K510E/I952T)": "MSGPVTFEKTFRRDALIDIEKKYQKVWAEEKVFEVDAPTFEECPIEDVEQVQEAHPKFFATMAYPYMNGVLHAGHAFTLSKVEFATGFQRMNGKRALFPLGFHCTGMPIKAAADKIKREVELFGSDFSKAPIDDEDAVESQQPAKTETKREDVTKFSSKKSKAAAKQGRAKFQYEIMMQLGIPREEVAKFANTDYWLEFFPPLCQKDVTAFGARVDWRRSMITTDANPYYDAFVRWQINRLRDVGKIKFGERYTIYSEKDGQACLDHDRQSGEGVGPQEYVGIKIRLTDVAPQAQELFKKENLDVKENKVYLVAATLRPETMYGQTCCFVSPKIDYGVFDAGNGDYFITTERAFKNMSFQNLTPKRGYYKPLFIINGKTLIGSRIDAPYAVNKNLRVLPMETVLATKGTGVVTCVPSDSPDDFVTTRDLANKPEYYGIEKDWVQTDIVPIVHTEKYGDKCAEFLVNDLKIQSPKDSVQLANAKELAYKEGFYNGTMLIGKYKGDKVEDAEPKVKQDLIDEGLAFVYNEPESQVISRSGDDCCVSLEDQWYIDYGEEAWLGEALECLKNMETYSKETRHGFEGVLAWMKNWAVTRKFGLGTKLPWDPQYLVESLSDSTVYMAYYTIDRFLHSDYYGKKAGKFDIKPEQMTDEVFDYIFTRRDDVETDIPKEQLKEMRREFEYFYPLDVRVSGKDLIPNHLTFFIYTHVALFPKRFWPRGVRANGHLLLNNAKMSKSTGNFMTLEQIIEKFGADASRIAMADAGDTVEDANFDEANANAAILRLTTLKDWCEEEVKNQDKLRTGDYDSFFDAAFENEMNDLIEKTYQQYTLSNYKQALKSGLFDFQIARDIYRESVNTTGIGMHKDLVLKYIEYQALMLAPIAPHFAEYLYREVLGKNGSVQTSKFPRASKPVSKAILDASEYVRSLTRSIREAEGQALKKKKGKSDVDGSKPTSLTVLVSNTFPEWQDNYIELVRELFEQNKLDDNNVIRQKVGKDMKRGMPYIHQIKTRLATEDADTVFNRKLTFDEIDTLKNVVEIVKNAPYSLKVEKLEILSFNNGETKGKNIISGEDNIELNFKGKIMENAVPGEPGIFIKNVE", "procedure": "as §1"}}, "data": [{"compound": "CC[C@H]1O[C@@H](n2cnc3c(N)ncnc32)[C@H]2O[B-]3(OCc4cc(F)ccc43)OC12", "note": "(stereo partly drawn) [AN2690-AMP]", "values": [{"measurement": "Kd", "setting": "Leucine--tRNA ligase", "result": 0.7, "unit": "µM"}, {"measurement": "Kd", "setting": "[1]", "result": 46, "unit": "µM"}, {"measurement": "Kd", "setting": "[2]", "result": 21, "unit": "µM"}]}]}
